Measured values taken from patent US20220408724A1, “METHOD FOR CONTROLLING METABOLISM OF BRANCHED FATTY ACID” (KAO CORPORATION, priority 2019, published 2022).
“And” between values parts separate entries of the source, which are not always exact repeats. Equal entries are not always repeated.

Experiments:
Format in all cases: cell-based
Rhodotorula mucilaginosa = assay: Suppression of metabolism of 14-methylhexadecanoic acid on cotton fabric; conditions: agent 250 μg/fabric g
Description: (§1) A methanol solution in which 14-methylhexadecanoic acid (SIGMA-ALDRICH) was dissolved was added dropwise to 3 cm×3 cm pieces of sterilized plain-weave cotton fabric to make it adhered to the fabric. The adhesion amount of 14-methylhexadecanoic acid was set to 10 μg per piece of the plain-weave cotton fabric (100 μg/fabric g).
(§2) Further, a methanol solution in which each metabolism controlling agent was dissolved was prepared and added dropwise to the fabric to which 14-methylhexadecanoic acid adhered, and it was thereafter dried for an hour. This fabric was placed in a sterilized screw tube bottle No. 3 (Maruemu Corporation) and 100 μl of the bacterial suspension was inoculated thereto, and culture was carried out under 37° C.; conditions for 21 hours.
(§3) 3 ml of methanol was added to the screw tube bottle after culture, and extraction was carried out under ultrasonic irradiation for 30 minutes (20° C.). The extraction liquid was mixed with a (trimethylsilyl)diazomethane hexane solution (FUJIFILM Wako Pure Chemical Corporation) at 9:1 (volume ratio) and left overnight under room temperature and dark place conditions. After that, 14-methylhexadecanoic acid remaining on the fabric was quantified by GC. The quantification conditions for GC are as follows. • GC: Agilent 7890A • GC column: Agilent DB-1 30 m×250 μm×0.25 μm • Temperature rise condition: 50° C. (held for 3 minutes)-(10° C./min)-300° C. (held for 5 minutes) • Sample injection volume: 1 μl • Split ratio: 1:12 • Detector: FID
(§4) The residual amount of 14-methylhexadecanoic acid after culture on the fabric to which the metabolism controlling agent was added was quantified, and the ratio of the residual amount to that of 14-methylhexadecanoic acid in the case of adding no metabolism controlling agent (control) was calculated as a metabolism suppression rate (%). The higher a numerical value thereof is, the more the metabolism is suppressed. Note that the metabolism suppression rate was determined by the following formula:
(§5) Metabolism suppression rate(%)=[1−(100−A)/(100−B)]×100 • A: residual amount of 14-methylhexadecanoic acid of example or comparative example (μg/fabric g) • B: residual amount of 14-methylhexadecanoic acid of control (μg/fabric g)
The metabolism of 14-methylhexadecanoic acid by yeast of the genus Rhodotorula was tested in the same manner as in example 1.
In this example, Rhodotorula mucilaginosa (strain isolated from clothing) was used as a microorganism.
Further, in this example, the bacteria were precultured under conditions of a PDA agar medium (Difco), 30° C.; and 48 hours.
Further, in this example, a bacterial suspension of 10^7 (CFU/ml) prepared by using a PDB liquid medium (Difco) diluted to 1/10 with ion exchange water was used as a bacterial suspension.

Micrococcus aloeverae [1] = assay: Measurement of viable bacterial count on fabric
Description: After culture on fabric prepared in the same manner as in the above (1), 9 mL of an LP diluent (manufactured by NIHON PHARMACEUTICAL CO., LTD.) was added, and the extraction of the bacteria was carried out under ultrasound for 10 minutes. The extraction liquid was poured and mixed to an SCD-LP agar medium (NIHON PHARMACEUTICAL CO., LTD.), and culture was thereafter carried out at 37° C.; for a day. The number of colonies obtained on each piece of the fabric was counted, and a common logarithm value thereof was measured as the viable bacterial count. […] In addition, the […], the more the viable bacterial count of the microorganism is maintained.
(§6) The metabolism of 14-methylhexadecanoic acid by bacteria of the genus Micrococcus was tested in the same manner as in example 1.
(§7) In this example, Micrococcus aloeverae (strain isolated from clothing) was used as a microorganism.
(§8) Further, in this example, a bacterial suspension of 10^7 (CFU/ml) prepared by using an SCD liquid medium (NIHON PHARMACEUTICAL CO., LTD.) diluted to 1/10 with ion exchange water was used as a bacterial suspension.
(§9) Note that, in this example, C12OH (1-dodecanol) was used as the metabolism controlling agent.

[2] = system: Escherichia coli (NBRC3972); assay: Suppression of metabolite 4-methylhexanoic acid from 14-methylhexadecanoic acid
Description: (§10) After culture on fabric prepared in the same manner as in the above (1), 3 ml of methanol was added, and extraction was carried out under ultrasonic irradiation for 30 minutes (20° C.). The extraction liquid was mixed with (a 1000 ppm methanol solution of) an ADAM reagent of Funakoshi Co., Ltd. at 1:1 (volume ratio) and left overnight under room temperature and dark place conditions. After that, 4-methyl-3-hexenoic acid as a metabolite from 14-methylhexadecanoic acid was quantified by HPLC. The quantification conditions are as follows.
(§11) The production amount of 4-methyl-3-hexenoic acid after culture on the fabric to which each metabolism controlling agent was added was quantified, and the ratio of the production amount to that of 4-methyl-3-hexenoic acid in the case of adding no metabolism controlling agent (control) was calculated as a metabolite suppression rate (%). The higher a numerical value thereof is, the more the metabolism is suppressed. Note that the metabolite suppression rate was determined by the following formula:
(§12) Metabolite suppression rate(%)=100×[(D−C)/D] • C: production amount of metabolite of example or comparative example (μg/fabric g) • D: production amount of metabolite of control (μg/fabric g)
(§13) The metabolism of 14-methylhexadecanoic acid by bacteria of the genus Escherichia (Escherichia coli) was tested in the same manner as in example 1.
(§14) In this example, Escherichia coli (NBRC3972) was used as a microorganism.
(§15) Further, in this example, a bacterial suspension of 10^6 (CFU/ml) prepared by using an NB liquid medium diluted to 1/10 with ion exchange water was used as a bacterial suspension.
(§16) Further, in this example, 4-methylhexanoic acid was quantified as a metabolite from 14-methylhexadecanoic acid, and the metabolite suppression rate was determined in the same manner as in example 1.
as §9

Micrococcus aloeverae [3] = assay: Suppression of metabolite 2-methylbutanoic acid from 14-methylhexadecanoic acid
Description: as §10, §11, §12, §6, §7, §8
Further, in this example, 2-methylbutanoic acid was quantified as a metabolite from 14-methylhexadecanoic acid, and the metabolite suppression rate was determined in the same manner as in example 1.
as §9

[4] = system: Escherichia coli (NBRC3972); assay: Suppression of metabolism of 14-methylhexadecanoic acid on cotton fabric
Description: as §1, §2, §3, §4, §5, §13, §14, §15, §9

Staphylococcus aureus = assay: Suppression of metabolite 4-methylhexanoic acid from 14-methylhexadecanoic acid
Description: as §10, §11, §12
The metabolism of 14-methylhexadecanoic acid by bacteria of the genus Staphylococcus (Staphylococcus aureus) was tested in the same manner as in example 1.
In this example, Staphylococcus aureus (strain isolated from clothing) was used as a microorganism.
Further, in this example, a bacterial suspension of 10^7 (CFU/ml) prepared by using an NB liquid medium diluted to 1/10 with ion exchange water was used as a bacterial suspension.
as §16, §9

CCCCCCCCCCCCO [Example C12OH, 1-dodecanol]
Metabolism suppression rate (%) (Rhodotorula mucilaginosa): 68%
Bacterial count (Log (cfu/fabric cm^2)) (Micrococcus aloeverae [1]; agent 100 μg/fabric g): 6.5 Log (cfu/fabric cm^2)
Bacterial count (Log (cfu/fabric cm^2)) (Micrococcus aloeverae [1]; agent 500 μg/fabric g): 5.6 Log (cfu/fabric cm^2)
Bacterial count (Log (cfu/fabric cm^2)) (Micrococcus aloeverae [1]; agent 1000 μg/fabric g): 5.6 Log (cfu/fabric cm^2)
Metabolite suppression rate (%) ([2]; agent 500 μg/fabric g): 74% and 41%
Metabolite suppression rate (%) ([2]; agent 1000 μg/fabric g): 93% and 65%
Metabolite suppression rate (%) ([2]; agent 2000 μg/fabric g): 77%
Metabolite suppression rate (%) ([2]; agent 3000 μg/fabric g): 80%
Metabolite suppression rate (%) (Micrococcus aloeverae [3]; agent 100 μg/fabric g): 21%
Metabolite suppression rate (%) (Micrococcus aloeverae [3]; agent 250 μg/fabric g): 79% and 74%
Metabolite suppression rate (%) (Micrococcus aloeverae [3]; agent 500 μg/fabric g): 75%
Metabolite suppression rate (%) (Micrococcus aloeverae [3]; agent 1000 μg/fabric g): 75%
Metabolism suppression rate (%) ([4]; agent 500 μg/fabric g): 39% and 21%
Metabolism suppression rate (%) ([4]; agent 1000 μg/fabric g): 90% and 61%
Metabolism suppression rate (%) ([4]; agent 2000 μg/fabric g): 66%
Metabolism suppression rate (%) ([4]; agent 3000 μg/fabric g): 73%
Metabolite suppression rate (%) (Staphylococcus aureus; agent 100 μg/fabric g): 10.00%
Metabolite suppression rate (%) (Staphylococcus aureus; agent 250 μg/fabric g): 74% and 64.10%
Metabolite suppression rate (%) (Staphylococcus aureus; agent 500 μg/fabric g): 93.20%
